Data from ChEMBL document CHEMBL4831500, “Discovery of first-in-class imidazothiazole-based potent and selective ErbB4 (HER4) kinase inhibitors” (Eur J Med Chem, 2021).

Assays:
[1] = molecular target: Tyrosine-protein kinase JAK3 (Homo sapiens) (UniProt P52333); assay: Inhibition of JAK3 (unknown origin) at 10 uM incubated for 40 mins in presence of Mg/ATP mix by [gamma p33]-ATP based scintillation counting method relative to control
[2] = molecular target: Voltage-gated inwardly rectifying potassium channel KCNH2 (Homo sapiens, UniProt Q12809); assay: Inhibition of human ERG incubated for 3 hrs by competitive fluorescence tracer binding based assay
MOLT-4 [3] = assay: Antiproliferative activity against human MOLT-4 cells assessed as cell growth inhibition measured after 48 hrs by SRB assay; type: functional, cell-based; settings: MOLT-4, 48 h
Homo sapiens = species: Homo sapiens; assay: Selectivity index, ratio of IC50 for inhibition of BRAF V600E mutant (unknown origin) to IC50 for inhibition of ErbB4 (unknown origin); settings: dose 10.0 µM, time 40.0 min
OVCAR-4 = assay: Antiproliferative activity against human OVCAR-4 cells assessed as cell growth inhibition at 10 uM measured after 48 hrs by SRB assay relative to control; type: functional
HCC 2998 [4] = assay: Antiproliferative activity against human HCC 2998 cells assessed as cell growth inhibition at 10 uM measured after 48 hrs by SRB assay relative to control; type: functional
HCC 2998 [5] = assay: Antiproliferative activity against human HCC 2998 cells assessed as cell growth inhibition measured after 48 hrs by SRB assay; type: functional, cell-based; settings: HCC 2998, 48 h
[6] = molecular target: RAF proto-oncogene serine/threonine-protein kinase (Homo sapiens, UniProt P04049); assay: Inhibition of RAF1 (unknown origin) at 10 uM incubated for 40 mins in presence of Mg/ATP mix by [gamma p33]-ATP based scintillation counting method relative to control
MOLT-4 [7] = assay: Antiproliferative activity against human MOLT-4 cells assessed as cell growth inhibition at 10 uM measured after 48 hrs by SRB assay relative to control; type: functional
U-251 = assay: Antiproliferative activity against human U-251 cells assessed as cell growth inhibition measured after 48 hrs by SRB assay; type: functional, cell-based; settings: U-251, 48 h
[8] = molecular target: Vascular endothelial growth factor receptor 2 (Homo sapiens, UniProt P35968); assay: Inhibition of KDR (unknown origin) at 10 uM incubated for 40 mins in presence of Mg/ATP mix by [gamma p33]-ATP based scintillation counting method relative to control
MDA-MB-468 = assay: Antiproliferative activity against human MDA-MB-468 cells assessed as cell growth inhibition measured after 48 hrs by SRB assay; type: functional, cell-based; settings: MDA-MB-468, 48 h
CYP3A4 = CYP3A4 (Homo sapiens, UniProt P08684); assay: Potency index, ratio of test compound IC50 to ketoconazole IC50 for inhibition of CYP3A4 (unknown origin) using BOMCC as a substrate incubated for 20 mins by fluorescence based analysis; type: ADME; settings: probe BOMCC
DU-145 [9] = assay: Antiproliferative activity against human DU-145 cells assessed as cell growth inhibition measured after 48 hrs by SRB assay; type: functional, cell-based; settings: DU-145, 48 h
[10] = molecular target: Receptor tyrosine-protein kinase erbB-4 (Homo sapiens, UniProt Q15303); assay: Inhibition of ErbB4 in human T47D cells assessed as suppression of neuregulin 1-induced autophosphorylation incubated for 90 mins by sandwich ELISA; type: cell-based
DU-145 [11] = assay: Antiproliferative activity against human DU-145 cells assessed as cell growth inhibition at 10 uM measured after 48 hrs by SRB assay relative to control; type: functional

Chain of Voltage-gated inwardly rectifying potassium channel KCNH2 (Q12809 whole entry): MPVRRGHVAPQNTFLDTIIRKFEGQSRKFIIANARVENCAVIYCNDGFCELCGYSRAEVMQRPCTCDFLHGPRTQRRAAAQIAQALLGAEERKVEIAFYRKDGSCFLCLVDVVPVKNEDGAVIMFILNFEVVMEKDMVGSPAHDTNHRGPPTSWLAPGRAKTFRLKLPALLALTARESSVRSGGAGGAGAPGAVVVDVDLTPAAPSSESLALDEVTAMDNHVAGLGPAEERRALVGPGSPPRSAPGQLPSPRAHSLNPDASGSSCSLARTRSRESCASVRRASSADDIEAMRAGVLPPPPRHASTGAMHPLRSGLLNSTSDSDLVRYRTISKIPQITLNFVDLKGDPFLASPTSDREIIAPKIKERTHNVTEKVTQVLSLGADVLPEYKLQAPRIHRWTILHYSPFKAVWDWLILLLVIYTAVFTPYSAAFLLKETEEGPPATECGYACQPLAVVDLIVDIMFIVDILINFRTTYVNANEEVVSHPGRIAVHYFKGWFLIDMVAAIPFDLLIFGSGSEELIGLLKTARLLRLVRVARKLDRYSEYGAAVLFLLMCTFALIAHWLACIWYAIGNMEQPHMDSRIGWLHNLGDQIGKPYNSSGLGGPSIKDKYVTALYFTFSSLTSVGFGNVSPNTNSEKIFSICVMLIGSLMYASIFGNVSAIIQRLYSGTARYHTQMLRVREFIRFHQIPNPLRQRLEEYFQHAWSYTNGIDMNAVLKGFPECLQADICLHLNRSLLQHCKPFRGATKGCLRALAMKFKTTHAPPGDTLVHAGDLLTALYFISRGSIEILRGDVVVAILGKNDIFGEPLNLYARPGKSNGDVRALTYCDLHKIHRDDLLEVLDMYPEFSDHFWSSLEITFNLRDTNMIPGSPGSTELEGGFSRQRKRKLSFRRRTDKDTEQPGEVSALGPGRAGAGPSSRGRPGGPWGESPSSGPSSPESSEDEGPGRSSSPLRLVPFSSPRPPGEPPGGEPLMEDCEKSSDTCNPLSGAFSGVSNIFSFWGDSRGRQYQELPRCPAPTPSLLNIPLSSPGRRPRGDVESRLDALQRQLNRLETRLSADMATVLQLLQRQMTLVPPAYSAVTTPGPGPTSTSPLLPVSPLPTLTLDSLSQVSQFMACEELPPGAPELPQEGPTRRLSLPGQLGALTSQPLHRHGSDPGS
Chain of Receptor tyrosine-protein kinase erbB-4 (Q15303 whole entry): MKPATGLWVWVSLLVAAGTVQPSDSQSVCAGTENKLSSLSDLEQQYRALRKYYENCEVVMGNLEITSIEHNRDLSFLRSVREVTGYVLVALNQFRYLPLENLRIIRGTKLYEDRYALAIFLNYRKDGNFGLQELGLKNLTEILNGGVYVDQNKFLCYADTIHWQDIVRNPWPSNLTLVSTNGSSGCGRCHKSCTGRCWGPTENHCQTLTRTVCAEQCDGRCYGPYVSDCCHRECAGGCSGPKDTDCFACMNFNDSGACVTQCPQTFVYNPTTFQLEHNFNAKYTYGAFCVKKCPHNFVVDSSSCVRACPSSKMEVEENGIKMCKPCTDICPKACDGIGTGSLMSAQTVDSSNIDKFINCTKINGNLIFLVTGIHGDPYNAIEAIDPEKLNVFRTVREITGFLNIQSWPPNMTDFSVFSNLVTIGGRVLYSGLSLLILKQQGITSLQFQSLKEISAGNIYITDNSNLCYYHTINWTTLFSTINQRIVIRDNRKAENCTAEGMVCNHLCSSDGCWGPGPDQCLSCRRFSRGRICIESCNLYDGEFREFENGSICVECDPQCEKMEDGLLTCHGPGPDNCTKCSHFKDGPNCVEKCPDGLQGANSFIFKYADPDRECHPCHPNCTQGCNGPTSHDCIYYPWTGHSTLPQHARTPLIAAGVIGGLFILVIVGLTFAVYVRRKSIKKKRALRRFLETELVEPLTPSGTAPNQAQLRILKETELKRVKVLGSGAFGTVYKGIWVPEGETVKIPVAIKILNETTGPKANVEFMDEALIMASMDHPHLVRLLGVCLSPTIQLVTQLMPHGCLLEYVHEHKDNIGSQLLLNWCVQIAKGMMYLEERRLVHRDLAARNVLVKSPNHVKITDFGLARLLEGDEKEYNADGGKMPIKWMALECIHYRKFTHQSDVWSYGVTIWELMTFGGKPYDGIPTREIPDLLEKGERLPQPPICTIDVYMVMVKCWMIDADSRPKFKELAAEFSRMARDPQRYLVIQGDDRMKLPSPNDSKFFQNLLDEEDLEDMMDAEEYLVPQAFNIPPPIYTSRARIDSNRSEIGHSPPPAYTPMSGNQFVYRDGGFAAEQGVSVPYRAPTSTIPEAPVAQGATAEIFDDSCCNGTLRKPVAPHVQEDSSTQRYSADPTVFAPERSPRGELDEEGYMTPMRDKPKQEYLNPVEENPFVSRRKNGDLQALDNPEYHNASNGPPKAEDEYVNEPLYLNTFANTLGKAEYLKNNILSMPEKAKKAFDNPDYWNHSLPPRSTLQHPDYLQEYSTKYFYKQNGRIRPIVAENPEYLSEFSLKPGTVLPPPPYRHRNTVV
Chain of RAF proto-oncogene serine/threonine-protein kinase (P04049 whole entry): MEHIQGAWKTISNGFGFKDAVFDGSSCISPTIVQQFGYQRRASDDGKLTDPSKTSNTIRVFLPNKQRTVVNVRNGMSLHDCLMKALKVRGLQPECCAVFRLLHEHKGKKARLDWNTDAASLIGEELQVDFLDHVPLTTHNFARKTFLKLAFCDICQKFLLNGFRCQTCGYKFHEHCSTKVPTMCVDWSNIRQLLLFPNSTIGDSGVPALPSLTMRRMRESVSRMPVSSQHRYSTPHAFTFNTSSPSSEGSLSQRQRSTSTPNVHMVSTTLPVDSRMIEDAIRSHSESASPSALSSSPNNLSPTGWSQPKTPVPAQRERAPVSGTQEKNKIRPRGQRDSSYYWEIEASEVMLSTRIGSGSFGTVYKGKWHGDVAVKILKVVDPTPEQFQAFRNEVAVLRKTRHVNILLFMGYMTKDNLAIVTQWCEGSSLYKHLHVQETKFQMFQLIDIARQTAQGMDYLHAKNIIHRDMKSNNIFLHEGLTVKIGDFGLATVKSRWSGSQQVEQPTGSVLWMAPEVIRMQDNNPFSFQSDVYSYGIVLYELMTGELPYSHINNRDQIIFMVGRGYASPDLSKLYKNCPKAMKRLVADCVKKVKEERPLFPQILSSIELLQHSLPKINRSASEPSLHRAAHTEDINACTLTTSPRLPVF
Chain of CYP3A4 (P08684 whole entry): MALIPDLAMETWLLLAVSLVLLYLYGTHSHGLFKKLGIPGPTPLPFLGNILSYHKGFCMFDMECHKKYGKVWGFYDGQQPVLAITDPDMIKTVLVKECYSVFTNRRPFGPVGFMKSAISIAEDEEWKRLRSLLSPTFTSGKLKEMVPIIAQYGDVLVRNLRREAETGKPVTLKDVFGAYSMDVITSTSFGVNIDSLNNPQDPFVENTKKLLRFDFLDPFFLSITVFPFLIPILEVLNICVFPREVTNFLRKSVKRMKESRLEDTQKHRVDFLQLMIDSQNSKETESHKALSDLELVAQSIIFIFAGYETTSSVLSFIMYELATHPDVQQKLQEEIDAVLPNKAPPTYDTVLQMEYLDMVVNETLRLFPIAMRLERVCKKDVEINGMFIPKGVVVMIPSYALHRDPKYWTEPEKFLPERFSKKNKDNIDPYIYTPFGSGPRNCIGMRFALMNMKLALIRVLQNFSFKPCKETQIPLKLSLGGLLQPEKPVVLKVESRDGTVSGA
Chain of Tyrosine-protein kinase JAK3 (Homo sapiens) (P52333 whole entry): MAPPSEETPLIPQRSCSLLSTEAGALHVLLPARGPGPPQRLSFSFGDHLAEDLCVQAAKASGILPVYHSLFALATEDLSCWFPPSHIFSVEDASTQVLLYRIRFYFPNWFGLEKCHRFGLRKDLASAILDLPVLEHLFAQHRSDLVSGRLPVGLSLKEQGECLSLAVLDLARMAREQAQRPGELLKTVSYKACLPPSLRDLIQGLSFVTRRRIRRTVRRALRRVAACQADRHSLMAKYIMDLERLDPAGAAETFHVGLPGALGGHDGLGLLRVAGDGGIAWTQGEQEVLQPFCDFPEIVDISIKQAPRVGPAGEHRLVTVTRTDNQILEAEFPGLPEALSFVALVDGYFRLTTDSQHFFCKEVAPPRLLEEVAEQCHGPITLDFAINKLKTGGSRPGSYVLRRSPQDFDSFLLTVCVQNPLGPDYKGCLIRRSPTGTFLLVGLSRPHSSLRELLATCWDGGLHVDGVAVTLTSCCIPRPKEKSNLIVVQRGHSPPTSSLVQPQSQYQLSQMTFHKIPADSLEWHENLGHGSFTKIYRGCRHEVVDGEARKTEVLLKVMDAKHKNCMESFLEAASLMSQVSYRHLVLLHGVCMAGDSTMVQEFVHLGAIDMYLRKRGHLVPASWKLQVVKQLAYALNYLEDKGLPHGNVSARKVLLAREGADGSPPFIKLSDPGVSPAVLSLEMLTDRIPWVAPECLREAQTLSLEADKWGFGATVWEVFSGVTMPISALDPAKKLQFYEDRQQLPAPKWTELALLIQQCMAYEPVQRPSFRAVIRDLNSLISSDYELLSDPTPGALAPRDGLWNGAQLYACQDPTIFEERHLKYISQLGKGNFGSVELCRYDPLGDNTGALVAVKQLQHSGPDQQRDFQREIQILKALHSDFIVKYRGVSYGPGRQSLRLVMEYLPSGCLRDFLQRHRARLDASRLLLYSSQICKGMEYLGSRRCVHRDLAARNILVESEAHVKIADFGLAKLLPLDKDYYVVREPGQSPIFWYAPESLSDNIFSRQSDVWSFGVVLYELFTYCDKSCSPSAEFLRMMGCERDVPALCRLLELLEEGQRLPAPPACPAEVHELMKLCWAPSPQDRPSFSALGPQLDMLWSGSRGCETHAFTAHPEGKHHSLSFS

With `CS(=O)(=O)c1nccc(-c2c(-c3cccc(OCc4ccccc4)c3)nc3sccn23)n1` as the compound, how does the inhibition [1] read?
The inhibition was 77.5%.

What about the IC50 [2] of the same compound?
The IC50 was 12400 nM.

And the IC50 (MOLT-4 [3])?
The IC50 was 1020 nM.

And the Ratio IC50 (Homo sapiens)?
Its Ratio IC50 is 866.

And the inhibition at 10 µM (OVCAR-4)?
The inhibition at 10 µM was 26.2%.

What about the inhibition at 10 µM (HCC 2998 [4]) of the same compound?
Its inhibition at 10 µM is 67.6%.

And the IC50 (HCC 2998 [5])?
Its IC50 is 1780 nM.

And the inhibition [6]?
Its inhibition is 23%.

What about the inhibition at 10 µM (MOLT-4 [7]) of the same compound?
The inhibition at 10 µM was 73.5%.

What about the IC50 (U-251) of the same compound?
Its IC50 is 6080 nM.

What about the inhibition [8] of the same compound?
Its inhibition is 24.8%.

What about the IC50 (MDA-MB-468) of the same compound?
Its IC50 is 1040 nM.

And the selectivity ratio at 20 min (CYP3A4)?
Its selectivity ratio at 20 min is 7480.

What about the IC50 (DU-145 [9]) of the same compound?
The IC50 was 1670 nM.

What about the IC50 [10] of the same compound?
Its IC50 is 3.3 nM.

What about the inhibition at 10 µM (DU-145 [11]) of the same compound?
Its inhibition at 10 µM is 160%.
